Consider 64 compounds from a melting point compilation (Tetko et al.; mined from patent text by program, amines drawn as free bases though some values may be those of a salt).

A value given as a limit tells only on which side of the number the result lay.

In the case of `CCCc1ccc(-n2ncc(C#N)c2NC(C)=O)c(Cl)c1`, the melting point was 143 to 144 °C.

In the case of `Cc1cccc(-c2nc(-c3ccc(S(C)=O)cc3)sc2-c2cc(C)nc(C)c2)c1` (centres undefined), the melting point fell in the range of 133 to 134 °C.

As for `CC(C)(C)c1nc(N)n(-c2c(Cl)cc(C(F)(F)F)cc2Cl)n1`, the melting point lay within 208 to 212 °C.

Turning to `CC1CCCC(C)(C)C1CS(=O)(=O)c1ccccc1` (centres undefined), the melting point came to 73 °C.

`O=C(CBr)c1ccc(OCc2ccccc2)c(OCc2ccccc2)c1Cl`: the melting point was 94 to 96 °C.

For the compound `N#Cc1ccc2c(c1)Sc1cc3c(cc1C=C2)CCC3`, the melting point lay within 142 to 143 °C.

Regarding `O=C(CCSC(=O)c1ccccc1)N[C@@H](Cc1c[nH]cn1)C(=O)O`, the melting point lay within 170 to 171 °C.

On to `COc1cc(C=O)ccc1OCc1cn(-c2ccccn2)nc1C`, for which the melting point lay in the range of 141 to 142 °C.

`CC(C)S(=O)(=O)c1ccc2c(c1)nc(CC1CCCC1)n2CC1CC1` displayed a melting point of 137 °C.

In turn, `NC[C@@H]1CN(c2nc3c(cc2F)c(=O)c(C(=O)O)cn3C2CC2)C[C@@H]1Cl` (relative stereo) showed a melting point of 174 to 177 °C.

`CCCC(=O)C=CC(=O)O` returned a melting point of 100 to 102 °C.

On to `O=c1cc(CO)oc2cc(S)ccc12`, for which the melting point fell in the range of 139 to 140 °C.

For `ClCc1nc2ccccc2c2ccnn12`, the melting point was 135 to 136 °C.

Compound `CCc1nc2nc(C)nn2c(O)c1CCC(C)CC(C)(C)C` (centres undefined) displayed a melting point of 183 to 185 °C.

`CN(C)CC#C[C@H]1CC[C@H](CN(C)c2ncc(Br)cn2)CC1` yielded a melting point of 71 to 72 °C.

In turn, `CCn1c(CC#N)ccc1C(=O)c1ccc(Cl)cc1` gave a melting point of 145 to 147 °C.

Regarding `CCOC(=O)[C@H]1O[C@@H]1C(=O)N[C@@H](CC(C)C)C(=O)c1ccccc1`, the melting point lay in the range of 118 to 119 °C.

In the case of `Nc1cccc2c(-c3ccccc3)c([N+](=O)[O-])oc12`, the melting point lay within 164 to 166 °C.

For `O=C=Nc1cccc(-c2nc3ccccc3c(=O)o2)c1`, the melting point lay within 115 to 121 °C.

On to `CCCn1c(=O)c2ccc(NC(=O)CC3CCCC3)cc2n1Cc1ccc(C(=O)O)cc1OC`, for which the melting point fell in the range of 122 to 125 °C.

As to `O=c1c(NCCCOc2cccc(CN3CCCCC3)c2)c(NCc2cccnc2)c1=O`, the melting point fell in the range of 174 to 178 °C.

Consider `Cc1c(-c2ccnc(Nc3ccc(C(=O)N4CCOCC4)cc3)n2)cccc1[N+](=O)[O-]`, for which the melting point was in the range of 187 to 188 °C.

On to `CCn1cc(Cl)nc(S(=O)(=O)CC(=O)Nc2ccccc2)c1=O`, for which the melting point lay within 178 to 180 °C.

On to `COc1ccc(Br)c(/C=C/c2cc(/C=C/c3ccc4cc[nH]c4c3)[nH]n2)c1`, for which the melting point was 103 to 109 °C.

Regarding `Cc1c(S(=O)(=O)Nc2ccc(-c3nc(C(=O)O)co3)cc2S(C)(=O)=O)sc2ccc(F)cc12`, the melting point fell in the range of 289 to 291 °C.

Consider `COc1cc(CN2CCc3cc(OCc4ccccc4)c(OC)cc3C2=O)cc(OC)c1`, for which the melting point was 82 to 83 °C.

Compound `CC(=O)OCC1OC(OS(C)(=O)=S)C(OC(C)=O)C(OC(C)=O)C1OC(C)=O` (centres undefined) gave a melting point of 118 to 119 °C.

The compound `CCc1ncnc(N[C@H]2CC[C@@H](CO)CC2)c1Cl` came in with a melting point of 71 to 72 °C.

For the compound `CC1(C(=O)NCCc2cccs2)CCCCC1`, the melting point lay in the range of 79 to 80 °C.

As for `N#Cc1cc(N)ccc1N1CCC(N2CCOCC2)CC1`, the melting point was 84 to 86 °C.

For `NC(=O)c1cccc(Cc2c[nH]cn2)c1O`, the melting point amounted to 198 °C.

Consider `Nc1nc(-c2ccc(C(=O)N3CCN(S(=O)(=O)c4ccc5cc(Br)ccc5c4)CC3)cc2)c[nH]1`, for which the melting point was 274 to 275 °C.

Compound `Cn1ccc2ncnc(Oc3ccc(NC(=O)Nc4cccc(OC(F)(F)F)c4)c(Cl)c3)c21` came in with a melting point of 171 to 174 °C.

Regarding `N#Cc1cccc(CCN2CCN(Cc3ccc(Cl)nc3)C2=N[N+](=O)[O-])c1`, the melting point was 204 to 206 °C.

As to `Cc1oncc1C(=O)N1CCC(O)CC1`, the melting point is 70.5 to 72.5 °C.

For the compound `CCOCCNC(=O)n1sc(OCC)nc1=O`, the melting point is less than 50 °C.

`NC(=O)c1nc(-c2cccc(O)c2)nc2c1[nH]c(=O)n2CC1CCCCC1`: the melting point fell in the range of 368 to 370 °C.

`Nc1noc2cc3c(cc12)C1(CO3)C(=O)N(CC2CCCO2)c2ccccc21` (centres undefined) showed a melting point of 116 to 119 °C.

Consider `Cc1cc(-n2cncn2)cc(I)c1N`, for which the melting point lay in the range of 151 to 154 °C.

In turn, `CS(=O)(=O)c1ccc(-c2cc(-c3csc(N)n3)sc2-c2ccc(F)cc2)cc1` gave a melting point of 243 to 245 °C.

The compound `CCCc1cc(Cl)c2oc(C(=O)O)c(C)c2c1O` returned a melting point of 200 to 203 °C.

`Cc1ccccc1NC(=O)CN1CC2CCC(C1)N2S(=O)(=O)c1cccc(C#N)c1`: the melting point was 166 to 168 °C.

`CS(=O)(=O)c1ccc(Oc2ccc(SC(F)(F)F)cc2)nc1` gave a melting point of 134 to 135 °C.

Regarding `C=CCc1c(-c2ccc(S(C)(=O)=O)cc2)cnn(CC(F)(F)F)c1=O`, the melting point lay within 192 to 195 °C.

`COc1cc2c(cc1-c1cc(-c3ccc(C#N)cc3)on1)C(C)(C)CCC2(C)C` came in with a melting point of 202 to 203 °C.

As to `COc1cn(-c2ccc(I)cc2F)nc(-c2ccnn2-c2ccccc2)c1=O`, the melting point lay within 194 to 196 °C.

Regarding `O=C(c1ccccc1)c1cc(O)ccc1O`, the melting point lay within 160 to 162 °C.

As to `CC(C)(C)c1cc(C=C2SC(=S)N(N)C2=O)ccc1O`, the melting point is greater than 225 °C.

`CC1(C)C(=O)Nc2cc3[nH]c(-c4c[nH]c5ccccc45)nc3cc21` came in with a melting point of 243 to 245 °C.

Compound `C=CCSc1cc(C(=O)O)cc(S(=O)(=O)Cl)c1Oc1ccccc1` showed a melting point of 160 to 162 °C.

Compound `CCCCCCCCCCCCCCCCNS(=O)(=O)c1ccc(Cl)c([N+](=O)[O-])c1` came in with a melting point of 91 to 93 °C.

Regarding `O=C(O)c1ccc2c(c1)S(=O)(=O)c1ccccc1CC2`, the melting point fell in the range of 248 to 250 °C.

On to `CC(O)c1cc(Cl)ccc1O` (centres undefined), for which the melting point amounted to 98 °C.

Regarding `O=C(Nc1ccc(Cl)cc1)Nc1c(C(O)(C(F)(F)F)C(F)(F)F)ccc2ccccc12`, the melting point lay within 210 to 212 °C.

`CCn1c(=O)c(Oc2ccc(F)cc2F)cc2cnc(NC3CCOCC3)nc21` came in with a melting point of 199 to 206 °C.

In turn, `O=C1Nc2ccccc2C1=c1[nH]c(=O)c(=Cc2ccc(OCc3ccccc3)cn2)[nH]c1=O` showed a melting point greater than 300 °C.

`COc1ccc(N2CCN(n3cnn(C)c3=O)CC2)cc1` registered a melting point of 178 °C.

`CN(CCOc1ccc(CC2SC(=O)NC2=O)cc1)C(=O)Nc1ccccc1` (centres undefined) came in with a melting point of 88 to 90 °C.

The compound `CN(C)C(=O)Nc1cc(Br)ccc1N1CCc2ccccc21` showed a melting point of 119 to 121 °C.

`CN1CCN(C(=O)C2CCC(Nc3ncc4ncnc(Nc5ccc(F)c(Cl)c5)c4n3)CC2)CC1` (centres undefined): the melting point was 194 to 197 °C.

The compound `O=C(C=Cc1ccc(Cl)c(Cl)c1)C1C(=O)CCC1=O` returned a melting point of 190 to 191 °C.

`CCN1CCN(c2cc3ccccc3c(=O)[nH]2)C[C@@H]1CO` yielded a melting point of 171 to 173 °C.

The compound `CC(=O)c1cc(-c2ccc(S(C)(=O)=O)cc2)c(-c2ccc(F)cc2)s1` showed a melting point of 169 to 172 °C.

For `CC(=O)OC(c1ccc(C(F)(F)F)cc1[N+](=O)[O-])c1cnoc1C1CC1` (centres undefined), the melting point came to 82 °C.

For orientation: melting point means the temperature, or range, at which the solid turns liquid.
